From patent publication US8901176B2, “Methods for treatment of Parkinson's disease” (Newron Pharmaceuticals, S.P.A., priority 2003, dated 2014)

Assays:
healthy volunteers [1] = conditions: 71 healthy volunteers; single doses of 10 mg/kg or 7 days of repeated doses of 5 mg/kg/day; cited from earlier work
primates = conditions: after 12 week daily administration; cited from earlier work
rodents given MPTP = conditions: cited from earlier work
[2] = test system: patients affected by idiopathic early Parkinson's disease; assay: Phase II dose finding, double-blind, placebo controlled 12-week study: efficacy (UPDRS section III responder rate, CGI); type: in vivo, human; conditions: for Non Responders, % / Responders, % / Responder rate (improvement of at least 30% in UPDRS section III): final visit; for Responder rate at final visit, %: 12 weeks, ITT cohort, versus placebo 21.4%
Source text: Mode of administration was oral, once daily; and duration of treatment was 12 weeks. The primary efficacy variable in this study was the proportion of patients considered to have achieved a response defined as an improvement of at least 30% in the unified Parkinson's disease ratings scale (UPDRS) section III score between baseline (Visit 2) and the end of the study (Visit 9 or early study termination).
The intent-to-treat (ITT) cohort was defined as all randomized patients who received at least one dose of study medication and for whom at least one UPDRS section III assessment after treatment was available.
The analysis based on the ITT Cohort was considered a primary analysis and was performed for all parameters except safety parameters.
The per-protocol (PP) cohort was defined as all patients who completed the study without major protocol violations. Minor violations not leading to exclusion from the PP cohort were defined during a blind review meeting after data cleaning. Drop-outs due to lack of efficacy and due to adverse events were not excluded from the PP cohort.
The primary efficacy variable was the percentage of patients with an improvement of at least 30% in the UPDRS section III score between baseline (Visit 2) and the end of the study (Visit 9 or early study termination). Comparison between the treatment groups was performed in the ITT analysis cohort (primary analysis) using a logistic regression model taking into account UPDRS section III score at baseline, the patient's treatment history (de-novo, single dopamine agonist alone, single dopamine agonists with a prior Parkinson's disease treatment) and the country.
The percentage of patients with an improvement of at least 30% in the UPDRS section III score at Visits 5 and 7 was analyzed using the same methods as for the primary efficacy variable.

[3] = pre-clinical studies; cited from earlier work
healthy volunteers [4] = conditions: in vivo; cited from earlier work
MAO-B = conditions: cited from earlier work
[5] = test system: animal model of wearing off; conditions: response diminished after 28 days continuous L-dopa treatment; cited from earlier work
[6] = test system: patients affected by idiopathic early Parkinson's disease; assay: Phase II dose finding, double-blind, placebo controlled 12-week study: safety (adverse events, vital signs, ECG, laboratory); conditions: for related adverse events: placebo 25.0%; for percentage of patients with adverse events: placebo 50.0%
Procedure: Safety was monitored by adverse events, vital signs, 12-lead ECG and clinical laboratory variables.
Patients were assigned to the study treatment group as randomized.
The analyses based on the safety cohort were performed for the safety parameters, demographic data and the most important baseline characteristics which were defined in the analysis plan.
Incidences of adverse events were calculated overall, by body system and by preferred term. Vital sign measurements at baseline (Visit 2) were compared to further visits using the Kruskal-Wallis test. All other safety variables were analysed descriptively.

[7] = De Novo subgroup (N = 66), Safinamide 0.5 mg/kg
[8] = De Novo subgroup (N = 66), Safinamide 1.0 mg/kg

## C[C@H](NCc1ccc(OCc2cccc(F)c2)cc1)C(N)=O [Safinamide, (+)-(S)-2-[[p-[(m-fluorobenzyl)oxy]-benzyl]amino]propionamide]
Healthy volunteers [1]
  side effects: did not produce any clinically relevant side effect
primates
  neostriatal dopamine: significant increase of neostriatal dopamine with increased turnover
Rodents given MPTP; given 4 h after the toxin (MPTP) administration
  nigral neuronal death: capable of preventing nigral neuronal death
Rodents given MPTP; given prior to the administration of MPTP
  neostriatal dopamine depletion: prevented neostriatal dopamine depletion
[2]; [7]
  Non Responders, %: 77.3%
  Responders, %: 22.7%
[2]; [8]
  Non Responders, %: 77.3%
  Responders, %: 22.7%
[2]; Safinamide 0.5 mg/kg oral once daily, group N = 55, p 0.132
  Responder rate at final visit, %: 30.9%
[2]; Safinamide 1.0 mg/kg oral once daily, group N = 56, p 0.016
  Responder rate at final visit, %: 37.5%
[2]; Single DA subgroup (N = 101), Safinamide 0.5 mg/kg add-on
  Non Responders, %: 63.6%
[2]; Single DA subgroup (N = 101), Safinamide 1.0 mg/kg add-on
  Non Responders, %: 52.9%
[2]; Single DA subgroup (N = 101; stable dopamine agonist treatment), Safinamide 0.5 mg/kg add-on, placebo 20.6%
  Responders, %: 36.4%
[2]; Single DA subgroup (N = 101; stable dopamine agonist treatment), Safinamide 1.0 mg/kg add-on, placebo 20.6%, P = 0.024
  Responders, %: 47.1%
[2]; patients who received a single dopamine agonist alone, 0.5 mg safinamide, placebo 25.0%
  Responder rate (improvement of at least 30% in UPDRS section III): 33.3%
[2]; patients who received a single dopamine agonist alone, 1.0 mg safinamide, placebo 25.0%
  Responder rate (improvement of at least 30% in UPDRS section III): 50.0%
[2]; patients with a dopamine agonist with a prior Parkinson's disease treatment, 0.5 mg safinamide, placebo 14.3%
  Responder rate (improvement of at least 30% in UPDRS section III): 40.0%
[2]; patients with a dopamine agonist with a prior Parkinson's disease treatment, 1.0 mg safinamide, placebo 14.3%
  Responder rate (improvement of at least 30% in UPDRS section III): 43.8%
[2]; safinamide 0.5 mg/kg group versus other groups, p=0.049, Fisher's exact test
  changes in CGI part I between baseline (Visit 2) and Visit 6: better outcome
[2]; safinamide added to a stabilized dose of a variety of dopamine agonists
  average improvement of patients: 27.8%
[2]; safinamide administered alone
  average improvement of patients: 6.9%
[3]
  anticonvulsant activity: broad spectrum of anticonvulsant activity
Healthy volunteers [4]
  amount of i.v. tyramine to raise BP by 30 mm Hg, compared to placebo (cheese effect): equal or greater amount of i.v. tyramine was required
MAO-B
  inhibition of MAO-B activity: potent, reversible inhibitor
[5]
  motor effect in response to L-dopa: restores the efficacy and duration of the motor effect
[6]; 0.5 and 1.0 mg/kg, 12 weeks
  overall safety (other vital signs, ECG recordings, laboratory parameters): no safety concerns were raised
[6]; other treatment groups (safinamide 0.5 mg/kg, placebo)
  mean heart rate, change from baseline to the final visit: a decrease was observed
[6]; safinamide 0.5 mg/kg group
  tremor aggravated (nervous system disorders, most frequent adverse event): 3.6 % of patients
  related adverse events: 12.5 % of patients
  percentage of patients with adverse events: 37.5 % of patients
[6]; safinamide 0.5 mg/kg group (atrial fibrillation, pregnancy), unlikely related or not related
  patients who experienced serious adverse events: Two
[6]; safinamide 1.0 mg/kg group
  nausea (gastrointestinal system disorders, most frequent adverse event): 3.6 % of patients
  related adverse events: 10.7 % of patients
  percentage of patients with adverse events: 32.1 % of patients
[6]; safinamide 1.0 mg/kg group (myasthenia gravis), not related
  patients who experienced serious adverse events: one
[6]; safinamide 1.0 mg/kg group, p=0.037, Kruskal-Wallis test
  mean heart rate, change from baseline to the final visit: increased
[6]; whole study, 0.5 and 1.0 mg/kg groups
  deaths: No deaths were reported
